# Values joined by “and” are separate entries in the source; they are usually repeats but may differ in a detail not shown here. Equal entries are not always repeated. Active and inactive are the calls of the source.
# Assays:
# [1] = target: Voltage-gated inwardly rectifying potassium channel KCNH2 (Homo sapiens, UniProt Q12809); conditions: Potency;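 also: confirmatory quantitative high-throughput screen measuring inhibition of hERG channel activity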
# [2] = target: T1, Cytochrome P450 1A2 (Homo sapiens, UniProt P05177);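 also: PubChem cytochrome P450 panel assay, CYP1A2 panel member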
# T1 sequence (P05177 whole entry): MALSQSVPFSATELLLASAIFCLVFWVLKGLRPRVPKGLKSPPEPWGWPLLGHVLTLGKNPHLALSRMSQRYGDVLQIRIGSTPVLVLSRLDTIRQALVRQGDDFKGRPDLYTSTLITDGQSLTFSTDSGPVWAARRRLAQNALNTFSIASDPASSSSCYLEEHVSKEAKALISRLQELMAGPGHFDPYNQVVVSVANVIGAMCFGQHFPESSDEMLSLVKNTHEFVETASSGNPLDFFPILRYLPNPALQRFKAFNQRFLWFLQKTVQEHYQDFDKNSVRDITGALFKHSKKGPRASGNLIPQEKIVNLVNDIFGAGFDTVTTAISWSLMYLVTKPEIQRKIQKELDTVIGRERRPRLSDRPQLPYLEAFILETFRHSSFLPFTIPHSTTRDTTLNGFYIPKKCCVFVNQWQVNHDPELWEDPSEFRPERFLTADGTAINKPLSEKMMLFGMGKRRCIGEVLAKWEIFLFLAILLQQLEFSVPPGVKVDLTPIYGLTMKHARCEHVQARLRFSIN
# [3] = target: T2, Sentrin-specific protease 7 (Homo sapiens, UniProt Q9BQF6); format: functional;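 also: Luminescence-based dose-response confirmation of ultra-high-throughput screening hits, measuring inhibition of SENP7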
# T2 sequence (Q9BQF6 whole entry): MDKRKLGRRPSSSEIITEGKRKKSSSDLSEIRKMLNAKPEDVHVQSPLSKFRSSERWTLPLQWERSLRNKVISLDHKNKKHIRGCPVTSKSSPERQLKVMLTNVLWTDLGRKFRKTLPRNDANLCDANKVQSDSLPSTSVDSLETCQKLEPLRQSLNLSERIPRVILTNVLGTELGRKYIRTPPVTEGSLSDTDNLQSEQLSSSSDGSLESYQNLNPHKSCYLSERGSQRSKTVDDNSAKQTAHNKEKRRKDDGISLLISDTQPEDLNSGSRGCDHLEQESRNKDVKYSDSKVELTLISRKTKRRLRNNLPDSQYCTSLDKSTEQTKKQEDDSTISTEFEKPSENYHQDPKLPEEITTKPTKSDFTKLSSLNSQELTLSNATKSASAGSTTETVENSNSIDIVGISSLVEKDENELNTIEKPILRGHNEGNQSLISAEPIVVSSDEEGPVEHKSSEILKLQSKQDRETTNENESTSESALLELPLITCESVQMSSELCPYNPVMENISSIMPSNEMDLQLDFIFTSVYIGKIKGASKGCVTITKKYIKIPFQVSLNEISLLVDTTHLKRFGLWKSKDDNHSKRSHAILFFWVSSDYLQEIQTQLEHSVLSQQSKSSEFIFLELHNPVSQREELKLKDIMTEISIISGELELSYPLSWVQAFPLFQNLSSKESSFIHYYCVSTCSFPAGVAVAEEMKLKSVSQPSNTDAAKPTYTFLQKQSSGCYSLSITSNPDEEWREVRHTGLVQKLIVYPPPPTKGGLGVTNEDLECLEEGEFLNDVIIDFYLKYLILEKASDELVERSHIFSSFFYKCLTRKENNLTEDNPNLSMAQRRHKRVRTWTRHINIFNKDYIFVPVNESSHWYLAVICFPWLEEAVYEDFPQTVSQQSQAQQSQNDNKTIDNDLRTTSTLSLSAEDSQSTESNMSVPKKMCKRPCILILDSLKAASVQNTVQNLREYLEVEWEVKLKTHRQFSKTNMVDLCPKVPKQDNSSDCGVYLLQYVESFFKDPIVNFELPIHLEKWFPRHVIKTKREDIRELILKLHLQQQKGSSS
# [4] = target: T3, Sentrin-specific protease 6 (Homo sapiens, UniProt Q9GZR1); format: functional;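 also: Luminescence-based dose-response confirmatory assay of SENP6 inhibition, following up an ultra-high-throughput screen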
# T3 sequence (Q9GZR1 whole entry): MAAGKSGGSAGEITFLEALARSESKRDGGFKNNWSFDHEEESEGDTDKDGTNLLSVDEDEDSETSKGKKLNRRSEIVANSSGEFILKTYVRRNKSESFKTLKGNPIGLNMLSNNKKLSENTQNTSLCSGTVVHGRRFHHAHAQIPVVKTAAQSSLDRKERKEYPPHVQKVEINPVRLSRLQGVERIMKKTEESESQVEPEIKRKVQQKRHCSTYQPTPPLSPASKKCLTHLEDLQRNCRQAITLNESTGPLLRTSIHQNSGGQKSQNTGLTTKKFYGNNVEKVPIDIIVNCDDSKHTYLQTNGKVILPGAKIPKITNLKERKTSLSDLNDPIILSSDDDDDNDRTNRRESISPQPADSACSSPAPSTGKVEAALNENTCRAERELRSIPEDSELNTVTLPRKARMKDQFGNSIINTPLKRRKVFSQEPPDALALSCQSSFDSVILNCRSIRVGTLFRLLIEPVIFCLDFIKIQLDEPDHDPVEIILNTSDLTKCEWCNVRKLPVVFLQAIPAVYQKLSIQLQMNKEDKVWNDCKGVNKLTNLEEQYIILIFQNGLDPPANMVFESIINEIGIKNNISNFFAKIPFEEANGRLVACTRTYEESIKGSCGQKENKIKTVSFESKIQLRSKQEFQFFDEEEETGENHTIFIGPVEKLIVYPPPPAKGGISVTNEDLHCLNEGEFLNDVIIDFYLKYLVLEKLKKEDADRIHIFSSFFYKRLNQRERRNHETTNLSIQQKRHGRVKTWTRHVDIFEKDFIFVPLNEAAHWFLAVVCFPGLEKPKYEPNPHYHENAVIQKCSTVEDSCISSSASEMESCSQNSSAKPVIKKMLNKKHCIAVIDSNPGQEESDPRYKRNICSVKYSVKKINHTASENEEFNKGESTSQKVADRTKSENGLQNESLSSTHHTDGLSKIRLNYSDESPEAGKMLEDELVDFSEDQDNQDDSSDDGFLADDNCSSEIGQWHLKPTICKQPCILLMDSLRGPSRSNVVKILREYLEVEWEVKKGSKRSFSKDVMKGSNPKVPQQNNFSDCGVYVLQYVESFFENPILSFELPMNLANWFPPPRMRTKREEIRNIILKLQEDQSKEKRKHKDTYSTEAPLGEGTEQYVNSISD
# [5] = target: T4, Caspase-3 (Homo sapiens, UniProt P42574); format: functional;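 also: Dose-response selectivity test against caspase-3 for candidate inhibitors of sentrin-specific proteases (SENPs)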
# T4 sequence (P42574 whole entry): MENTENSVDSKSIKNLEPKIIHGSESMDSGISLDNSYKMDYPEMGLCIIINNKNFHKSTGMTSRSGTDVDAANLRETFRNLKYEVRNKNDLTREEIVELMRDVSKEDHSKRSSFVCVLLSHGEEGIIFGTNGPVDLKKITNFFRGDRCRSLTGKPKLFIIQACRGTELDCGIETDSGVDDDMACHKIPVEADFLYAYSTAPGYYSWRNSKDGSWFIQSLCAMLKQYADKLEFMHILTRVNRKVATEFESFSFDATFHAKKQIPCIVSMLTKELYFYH
# [6] = target: T5, Sentrin-specific protease 8 (Homo sapiens, UniProt Q96LD8); format: functional;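 also: luminescence read-out of SENP8 inhibition, dose-response confirmation following an ultra-high-throughput screen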
# T5 sequence (Q96LD8 whole entry): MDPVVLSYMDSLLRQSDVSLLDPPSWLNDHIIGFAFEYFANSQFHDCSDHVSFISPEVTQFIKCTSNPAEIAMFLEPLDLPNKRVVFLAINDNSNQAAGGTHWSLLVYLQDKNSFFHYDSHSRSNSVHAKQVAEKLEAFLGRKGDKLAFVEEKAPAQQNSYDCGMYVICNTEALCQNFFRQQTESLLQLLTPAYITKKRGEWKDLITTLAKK
# [7] = target: T6, CAAX prenyl protease 2 (Homo sapiens, UniProt Q9Y256); experiment: inhibition of Ras-converting CAAX protease Rce1 – biochemical, yeast membranes, quenched-peptide fluorescence, cherry-pick, dose response (AID 588849)
# T6 sequence (Q9Y256 whole entry): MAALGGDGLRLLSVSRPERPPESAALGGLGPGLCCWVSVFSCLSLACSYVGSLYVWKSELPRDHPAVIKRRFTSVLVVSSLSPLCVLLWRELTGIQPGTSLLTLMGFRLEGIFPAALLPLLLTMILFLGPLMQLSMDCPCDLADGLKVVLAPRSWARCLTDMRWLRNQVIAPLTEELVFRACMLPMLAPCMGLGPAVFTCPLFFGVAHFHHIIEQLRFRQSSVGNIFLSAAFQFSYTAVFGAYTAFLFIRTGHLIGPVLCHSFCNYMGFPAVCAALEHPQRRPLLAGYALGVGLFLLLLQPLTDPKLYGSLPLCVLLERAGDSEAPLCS
# [8] = target: Trypsin (Sus scrofa, UniProt P00761); experiment: trypsin protease activity blockade – biochemical, quenched peptide fluorescence, cherry-pick, selectivity assay for Rce1 protease inhibitor project, dose response (AID 488789)
# Trypsin, sequence (P00761 whole entry): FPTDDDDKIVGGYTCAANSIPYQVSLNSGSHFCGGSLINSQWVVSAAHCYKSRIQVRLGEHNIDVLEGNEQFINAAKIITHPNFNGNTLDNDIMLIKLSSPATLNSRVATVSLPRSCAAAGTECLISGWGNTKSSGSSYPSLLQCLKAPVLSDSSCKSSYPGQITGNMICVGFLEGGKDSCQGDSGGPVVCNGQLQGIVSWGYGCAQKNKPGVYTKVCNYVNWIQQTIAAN
# [9] = target: T7, CAAX prenyl protease 2 (Saccharomyces cerevisiae S288c, UniProt Q03530); format: biochemical
# T7 sequence (Q03530 whole entry): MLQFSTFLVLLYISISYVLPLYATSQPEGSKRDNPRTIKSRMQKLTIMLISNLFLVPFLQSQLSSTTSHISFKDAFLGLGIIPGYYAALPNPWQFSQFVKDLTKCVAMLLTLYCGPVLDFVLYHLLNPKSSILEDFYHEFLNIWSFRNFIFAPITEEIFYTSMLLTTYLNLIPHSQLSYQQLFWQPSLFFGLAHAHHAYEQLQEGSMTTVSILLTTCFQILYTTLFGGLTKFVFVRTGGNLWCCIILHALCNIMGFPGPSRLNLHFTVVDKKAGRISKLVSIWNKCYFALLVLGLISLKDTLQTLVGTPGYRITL
# [10] = target: T8, Endoribonuclease toxin MazF (Escherichia coli K-12, UniProt P0AE70); experiment: activation of MazEF endoribonuclease cleavage – biochemical, fluorescence, single-stranded RNA substrate, uHTS hits, dose response (AID 588481); format: functional
# T8 sequence (P0AE70 whole entry): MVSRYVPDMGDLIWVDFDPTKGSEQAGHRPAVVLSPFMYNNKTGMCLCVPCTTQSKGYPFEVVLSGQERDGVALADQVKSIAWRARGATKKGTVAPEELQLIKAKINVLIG
# [11] = target: T8, Endoribonuclease toxin MazF; experiment: substrate-only fluorescence increase artefacts – biochemical, single-stranded RNase substrate, counter-screen for MazEF activator project, dose response (AID 588502); format: functional
# [12] = target: T9, Nuclear receptor subfamily 0 group B member 1 (Homo sapiens, UniProt P51843); experiment: Luminescence-based cell-based high throughput dose response assay for inhibitors of the orphan nuclear receptor subfamily 0, group B, member 1 (DAX1; NR0B1). [Related pubchem assays (depositor defined):AID504766, AID504790]; format: functional
# T9 sequence (P51843 whole entry): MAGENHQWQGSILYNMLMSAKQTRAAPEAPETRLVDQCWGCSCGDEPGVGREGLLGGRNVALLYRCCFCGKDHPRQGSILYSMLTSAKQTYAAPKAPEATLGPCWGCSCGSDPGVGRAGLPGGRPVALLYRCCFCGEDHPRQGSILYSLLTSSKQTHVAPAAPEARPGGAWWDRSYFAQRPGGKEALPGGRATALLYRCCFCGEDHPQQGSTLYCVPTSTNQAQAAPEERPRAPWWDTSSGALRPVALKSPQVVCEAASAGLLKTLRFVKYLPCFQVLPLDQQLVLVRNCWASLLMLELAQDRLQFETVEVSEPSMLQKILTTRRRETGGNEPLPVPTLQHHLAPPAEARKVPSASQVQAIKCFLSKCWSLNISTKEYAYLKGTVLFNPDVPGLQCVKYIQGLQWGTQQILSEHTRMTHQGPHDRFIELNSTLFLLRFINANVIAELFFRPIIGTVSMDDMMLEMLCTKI
# [13] = tested on: HEK293; experiment: cells; format: functional, cell-based; conditions: Homo sapiens
# [14] = target: Cytochrome P450 3A4 (Homo sapiens, UniProt P08684);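 also: CYP3A4 tested as one member of a cytochrome P450 panel screen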
# Cytochrome P450 3A4, sequence (P08684 whole entry): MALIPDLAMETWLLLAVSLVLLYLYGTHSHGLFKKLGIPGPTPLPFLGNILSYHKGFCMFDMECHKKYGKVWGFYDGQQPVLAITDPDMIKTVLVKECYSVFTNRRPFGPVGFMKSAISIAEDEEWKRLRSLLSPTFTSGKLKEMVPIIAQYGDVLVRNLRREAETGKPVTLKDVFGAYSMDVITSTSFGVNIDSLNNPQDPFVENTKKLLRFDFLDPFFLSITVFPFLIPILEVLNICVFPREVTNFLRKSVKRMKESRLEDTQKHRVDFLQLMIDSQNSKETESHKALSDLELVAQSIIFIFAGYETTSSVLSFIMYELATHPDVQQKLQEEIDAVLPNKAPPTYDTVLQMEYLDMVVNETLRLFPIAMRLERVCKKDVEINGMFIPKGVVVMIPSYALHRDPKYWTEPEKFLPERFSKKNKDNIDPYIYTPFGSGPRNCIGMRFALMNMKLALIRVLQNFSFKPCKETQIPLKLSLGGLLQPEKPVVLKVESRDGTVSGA
# [15] = target: Mu-type opioid receptor (Homo sapiens, UniProt P35372); format: functional, cell-based;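 also: U2OS cells with beta-arrestin recruitment to OPRM1 by beta-gal complementation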
# Mu-type opioid receptor, sequence (P35372 whole entry): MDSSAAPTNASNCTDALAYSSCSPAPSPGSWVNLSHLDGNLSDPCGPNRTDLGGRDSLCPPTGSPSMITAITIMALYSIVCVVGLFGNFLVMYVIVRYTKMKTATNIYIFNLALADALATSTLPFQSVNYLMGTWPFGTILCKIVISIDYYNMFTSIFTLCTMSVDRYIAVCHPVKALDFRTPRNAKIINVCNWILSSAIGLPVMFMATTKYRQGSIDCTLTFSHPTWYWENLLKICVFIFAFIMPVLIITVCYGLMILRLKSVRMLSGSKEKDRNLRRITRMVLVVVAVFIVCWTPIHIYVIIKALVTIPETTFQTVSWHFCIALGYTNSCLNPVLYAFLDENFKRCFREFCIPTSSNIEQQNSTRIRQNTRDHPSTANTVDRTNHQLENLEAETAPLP
# [16] = target: 5-hydroxytryptamine receptor 2A (Mus musculus, UniProt P35363); format: functional, cell-based;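 also: CHO-K1 cells with tagged receptor and beta-arrestin; agonist potency measured as compound-induced activation of the receptor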
# 5-hydroxytryptamine receptor 2A, sequence (P35363 whole entry): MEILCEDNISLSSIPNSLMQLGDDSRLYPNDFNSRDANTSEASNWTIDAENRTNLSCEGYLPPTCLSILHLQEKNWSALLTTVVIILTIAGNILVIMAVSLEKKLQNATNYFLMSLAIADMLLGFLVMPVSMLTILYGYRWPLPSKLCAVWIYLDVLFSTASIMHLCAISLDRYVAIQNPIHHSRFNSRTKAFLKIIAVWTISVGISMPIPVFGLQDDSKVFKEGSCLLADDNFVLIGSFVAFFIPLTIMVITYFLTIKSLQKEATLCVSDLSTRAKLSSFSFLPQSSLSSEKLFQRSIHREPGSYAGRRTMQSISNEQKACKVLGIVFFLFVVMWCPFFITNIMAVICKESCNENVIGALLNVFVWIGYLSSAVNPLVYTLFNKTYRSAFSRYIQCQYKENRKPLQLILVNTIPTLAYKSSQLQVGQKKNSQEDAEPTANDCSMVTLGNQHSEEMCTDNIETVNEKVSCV
# Voltage-gated inwardly rectifying potassium channel KCNH2, sequence (Q12809 whole entry): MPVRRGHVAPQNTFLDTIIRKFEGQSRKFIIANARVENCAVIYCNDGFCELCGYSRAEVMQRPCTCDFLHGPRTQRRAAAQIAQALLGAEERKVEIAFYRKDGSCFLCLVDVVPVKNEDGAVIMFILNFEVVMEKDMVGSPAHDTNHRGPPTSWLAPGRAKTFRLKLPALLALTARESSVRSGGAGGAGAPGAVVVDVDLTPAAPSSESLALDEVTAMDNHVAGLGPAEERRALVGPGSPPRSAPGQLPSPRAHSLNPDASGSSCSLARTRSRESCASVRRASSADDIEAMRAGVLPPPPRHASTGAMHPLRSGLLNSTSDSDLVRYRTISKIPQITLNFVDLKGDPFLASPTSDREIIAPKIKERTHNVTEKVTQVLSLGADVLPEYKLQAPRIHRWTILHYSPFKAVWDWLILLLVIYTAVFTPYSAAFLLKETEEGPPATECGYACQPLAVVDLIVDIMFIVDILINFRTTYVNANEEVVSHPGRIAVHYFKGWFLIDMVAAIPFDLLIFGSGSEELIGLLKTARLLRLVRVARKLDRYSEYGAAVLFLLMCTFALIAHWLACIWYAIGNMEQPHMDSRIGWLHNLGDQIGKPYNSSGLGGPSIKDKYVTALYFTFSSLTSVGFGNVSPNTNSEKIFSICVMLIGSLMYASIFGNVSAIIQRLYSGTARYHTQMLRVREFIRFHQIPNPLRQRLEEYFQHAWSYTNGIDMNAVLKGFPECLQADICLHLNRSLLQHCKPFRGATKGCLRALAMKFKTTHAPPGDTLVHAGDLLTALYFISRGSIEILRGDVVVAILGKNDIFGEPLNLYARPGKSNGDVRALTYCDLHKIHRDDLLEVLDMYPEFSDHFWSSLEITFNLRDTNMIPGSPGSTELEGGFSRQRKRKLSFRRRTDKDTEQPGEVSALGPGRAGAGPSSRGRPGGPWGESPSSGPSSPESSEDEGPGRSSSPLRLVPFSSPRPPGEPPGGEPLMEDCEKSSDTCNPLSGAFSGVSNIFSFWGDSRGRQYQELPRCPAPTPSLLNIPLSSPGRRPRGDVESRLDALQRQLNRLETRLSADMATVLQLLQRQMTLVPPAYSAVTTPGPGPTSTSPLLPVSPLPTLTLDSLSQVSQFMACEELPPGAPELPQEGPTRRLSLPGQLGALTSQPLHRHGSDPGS
smiles,measurement,setting,value
O=C(Nc1cc(C(=O)Nc2ccc(S(=O)(=O)O)cc2S(=O)(=O)O)cc(C(=O)Nc2ccc(S(=O)(=O)O)cc2S(=O)(=O)O)c1)Nc1cc(C(=O)Nc2ccc(S(=O)(=O)O)cc2S(=O)(=O)O)cc(C(=O)Nc2ccc(S(=O)(=O)O)cc2S(=O)(=O)O)c1,AC50,[1],35.5 µM (inconclusive)
same,AC50,[2],31.6 µM (inconclusive) and 39.8 µM (inconclusive)
Cc1ccc(NC(=O)c2cccc3cccnc23)cc1,IC50,[3],8.6 µM (active)
same,IC50,[4],31.3 µM (active)
same,IC50,[5],32.5 µM (active)
same,IC50,[6],24.3 µM (active)
Cc1ccc(/N=C/c2c(O)oc3ccccc3c2=O)c(C)c1,IC50,[3],> 100 µM (inactive)
same,IC50,[4],> 100 µM (inactive)
same,IC50,[5],95 µM (active)
same,IC50,[6],> 100 µM (inactive)
CC1(C(=O)N(CC(=O)NC2CCCC2)Cc2ccco2)CC(=O)N=C2C=CC=CN21 (stereo not given),AC50,[7],3.19 µM (active)
same,AC50,[8],4.21 µM (active)
same,AC50,[9],4.64 µM (active)
Oc1ccccc1-c1nc(NCc2ccco2)c2ccccc2n1,EC50,[10],> 99 µM (inactive)
same,EC50,[11],> 99 µM (inactive)
CCOC(=O)c1ccc2[nH]c3ccccc3c2c1,IC50,[12],> 67.5 µM (inactive)
same,IC50,[13],> 67.5 µM (inactive)
Cc1nc2cc(NC(=O)c3ccc(Br)s3)ccc2s1,IC50,[3],4.08 µM (active)
same,IC50,[4],> 100 µM (inactive)
same,IC50,[5],19.7 µM (active)
same,IC50,[6],> 100 µM (inactive)
Nc1ncnc2c1ncn2C1C=C(CO)C(O)C1O (stereo not given),IC50,[12],> 67.7 µM (inactive)
same,IC50,[13],> 2.51 µM (active)
C[C@H](O)C(=O)C1=Nc2c(nc(N)[nH]c2=O)NC1 [SEPIAPTERIN],AC50,[1],28.2 µM (inconclusive)
same,AC50,[14],0.316 µM (inconclusive)
CC1=NN=C(c2ccc(N)cc2)c2cc3c(cc2C1)OCO3,EC50,[15],92.5 µM (inactive)
same,AC50,[1],35.5 µM (inconclusive)
same,EC50,[16],76.1 µM (inactive)
C=CCOC(=O)C1=C(C)OC(N)=C(C#N)C1c1ccco1 (stereo not given),IC50,[12],> 67.5 µM (inactive)
same,IC50,[13],> 67.5 µM (inactive)

# From ChEMBL document CHEMBL1201862, “PubChem BioAssay data set” (2004)
